Measurements from PubChem BioAssay (NCI).
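Step 1: Grow cells in 96-well plates. Step 2: Expose to compound for 48 hours at 5 concentrations. Step 3: Interpolate endpoints linearly; if unreached, use highest concentration. The concentration for full growth arrest is given as TGI.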

Experiments:
Test in all cases: DTP human tumour cell line panel, 48 h
HCT-15 colon = test system: HCT-15 colon
NCI/ADR-RES ovarian = test system: NCI/ADR-RES ovarian
CAKI-1 renal = test system: CAKI-1 renal
OVCAR-3 ovarian = test system: OVCAR-3 ovarian
DU-145 prostate = test system: DU-145 prostate
MCF7 breast = test system: MCF7 breast
OVCAR-4 ovarian = test system: OVCAR-4 ovarian
SW-620 colon = test system: SW-620 colon
MALME-3M melanoma = test system: MALME-3M melanoma
M14 melanoma = test system: M14 melanoma
ACHN renal = test system: ACHN renal
SNB-19 CNS = test system: SNB-19 CNS
UO-31 renal = test system: UO-31 renal
MDA-MB-231 breast = test system: MDA-MB-231 breast
SK-MEL-5 melanoma = test system: SK-MEL-5 melanoma
U251 CNS = test system: U251 CNS
HOP-92 NSCLC = test system: HOP-92 NSCLC
SR leukemia = test system: SR leukemia
TK-10 renal = test system: TK-10 renal
UACC-62 melanoma = test system: UACC-62 melanoma

CCOC(=O)CCC(NC(=O)c1ccc(Oc2nc3c(N)cc(C(F)(F)F)cc3nc2-c2ccccc2)cc1)C(=O)OCC (stereo not given)
TGI (HCT-15 colon): > 100 µM | TGI (NCI/ADR-RES ovarian): > 100 µM | TGI (CAKI-1 renal): 8.91 µM | TGI (OVCAR-3 ovarian): > 30.9 µM | TGI (DU-145 prostate): > 64.8 µM | TGI (MCF7 breast): > 100 µM | TGI (OVCAR-4 ovarian): > 100 µM | TGI (SW-620 colon): > 100 µM | TGI (MALME-3M melanoma): 91.9 µM | TGI (M14 melanoma): > 100 µM | TGI (ACHN renal): > 69.6 µM | TGI (SNB-19 CNS): > 80.9 µM | TGI (UO-31 renal): > 100 µM | TGI (MDA-MB-231 breast): > 96.1 µM | TGI (SK-MEL-5 melanoma): > 100 µM | TGI (U251 CNS): > 100 µM | TGI (HOP-92 NSCLC): > 100 µM | TGI (SR leukemia): > 100 µM | TGI (TK-10 renal): > 100 µM | TGI (UACC-62 melanoma): > 100 µM

CCOC(=O)C1C(c2ccc(OC)cc2)c2c([nH][nH]c2=O)CC1(C)O (stereo not given)
TGI (HCT-15 colon): > 100 µM | TGI (NCI/ADR-RES ovarian): > 100 µM | TGI (CAKI-1 renal): > 100 µM | TGI (OVCAR-3 ovarian): > 100 µM | TGI (DU-145 prostate): > 100 µM | TGI (MCF7 breast): > 100 µM | TGI (OVCAR-4 ovarian): > 100 µM | TGI (SW-620 colon): > 100 µM | TGI (MALME-3M melanoma): > 100 µM | TGI (M14 melanoma): > 100 µM | TGI (ACHN renal): > 100 µM | TGI (SNB-19 CNS): > 100 µM | TGI (UO-31 renal): > 100 µM | TGI (MDA-MB-231 breast): > 100 µM | TGI (SK-MEL-5 melanoma): > 100 µM | TGI (U251 CNS): > 100 µM | TGI (HOP-92 NSCLC): > 100 µM | TGI (SR leukemia): > 100 µM | TGI (TK-10 renal): > 100 µM | TGI (UACC-62 melanoma): > 100 µM

CC(NC1=CC(=O)c2cccnc2C1=O)C(O)c1ccccc1 (stereo not given)
TGI (HCT-15 colon): 8.08 µM | TGI (NCI/ADR-RES ovarian): 24.2 µM | TGI (CAKI-1 renal): 7.23 µM | TGI (OVCAR-3 ovarian): 6 µM | TGI (DU-145 prostate): 3.65 µM | TGI (MCF7 breast): 3.04 µM | TGI (OVCAR-4 ovarian): 11.1 µM | TGI (SW-620 colon): 3.89 µM | TGI (MALME-3M melanoma): 2.94 µM | TGI (M14 melanoma): 3.12 µM | TGI (ACHN renal): 14.5 µM | TGI (SNB-19 CNS): 5.66 µM | TGI (UO-31 renal): 9.49 µM | TGI (MDA-MB-231 breast): > 46.3 µM | TGI (SK-MEL-5 melanoma): 2.44 µM | TGI (U251 CNS): 13.2 µM | TGI (HOP-92 NSCLC): 24.5 µM | TGI (SR leukemia): > 23.1 µM | TGI (TK-10 renal): 28.1 µM | TGI (UACC-62 melanoma): 3.1 µM

O=C(COc1ccccc1)N(C(=O)N1CCN(c2ccccc2)CC1)S(=O)(=O)c1ccccc1
TGI (HCT-15 colon): > 100 µM | TGI (NCI/ADR-RES ovarian): > 100 µM | TGI (CAKI-1 renal): > 100 µM | TGI (OVCAR-3 ovarian): > 100 µM | TGI (DU-145 prostate): > 100 µM | TGI (MCF7 breast): > 100 µM | TGI (OVCAR-4 ovarian): > 100 µM | TGI (SW-620 colon): > 100 µM | TGI (MALME-3M melanoma): > 100 µM | TGI (M14 melanoma): > 100 µM | TGI (ACHN renal): > 100 µM | TGI (SNB-19 CNS): > 100 µM | TGI (UO-31 renal): > 100 µM | TGI (MDA-MB-231 breast): > 100 µM | TGI (SK-MEL-5 melanoma): > 100 µM | TGI (U251 CNS): > 100 µM | TGI (HOP-92 NSCLC): > 100 µM | TGI (SR leukemia): 45.4 µM | TGI (TK-10 renal): > 100 µM | TGI (UACC-62 melanoma): > 100 µM

CCOC(=O)/C(C(=S)NCc1ccccc1)=C(/N)N1CCCC1
TGI (HCT-15 colon): > 100 µM | TGI (NCI/ADR-RES ovarian): > 100 µM | TGI (CAKI-1 renal): > 100 µM | TGI (OVCAR-3 ovarian): > 100 µM | TGI (DU-145 prostate): > 100 µM | TGI (MCF7 breast): > 100 µM | TGI (OVCAR-4 ovarian): > 100 µM | TGI (SW-620 colon): > 100 µM | TGI (MALME-3M melanoma): > 100 µM | TGI (M14 melanoma): > 100 µM | TGI (ACHN renal): > 100 µM | TGI (SNB-19 CNS): > 100 µM | TGI (UO-31 renal): > 100 µM | TGI (MDA-MB-231 breast): > 100 µM | TGI (SK-MEL-5 melanoma): > 100 µM | TGI (U251 CNS): > 100 µM | TGI (HOP-92 NSCLC): > 100 µM | TGI (SR leukemia): > 100 µM | TGI (TK-10 renal): > 100 µM | TGI (UACC-62 melanoma): > 100 µM

COc1cc2cc3c4c(cc(OC)c(OC)c4c2cc1OC)CCN3C
TGI (HCT-15 colon): > 47.8 µM | TGI (NCI/ADR-RES ovarian): > 48.2 µM | TGI (CAKI-1 renal): 25.7 µM | TGI (OVCAR-3 ovarian): 31.9 µM | TGI (DU-145 prostate): 19.8 µM | TGI (MCF7 breast): > 36.4 µM | TGI (OVCAR-4 ovarian): 12 µM | TGI (SW-620 colon): > 50 µM | TGI (MALME-3M melanoma): 24.9 µM | TGI (M14 melanoma): > 50 µM | TGI (ACHN renal): 31.7 µM | TGI (SNB-19 CNS): > 50 µM | TGI (UO-31 renal): 40.6 µM | TGI (MDA-MB-231 breast): > 44.1 µM | TGI (SK-MEL-5 melanoma): 16.6 µM | TGI (U251 CNS): > 50 µM | TGI (HOP-92 NSCLC): > 50 µM | TGI (SR leukemia): > 10.8 µM | TGI (TK-10 renal): > 23.4 µM | TGI (UACC-62 melanoma): 14.3 µM

Cc1cn(Cc2cccc(C3=NCCCN3)c2)c(=O)n(Cc2cccc(C3=NCCCN3)c2)c1=O
TGI (HCT-15 colon): > 100 µM | TGI (NCI/ADR-RES ovarian): > 100 µM | TGI (CAKI-1 renal): > 100 µM | TGI (OVCAR-3 ovarian): > 100 µM | TGI (DU-145 prostate): > 100 µM | TGI (MCF7 breast): > 100 µM | TGI (OVCAR-4 ovarian): > 100 µM | TGI (SW-620 colon): > 100 µM | TGI (MALME-3M melanoma): > 100 µM | TGI (M14 melanoma): > 100 µM | TGI (ACHN renal): > 100 µM | TGI (SNB-19 CNS): > 100 µM | TGI (UO-31 renal): > 100 µM | TGI (MDA-MB-231 breast): > 100 µM | TGI (SK-MEL-5 melanoma): > 100 µM | TGI (U251 CNS): > 100 µM | TGI (HOP-92 NSCLC): > 100 µM | TGI (SR leukemia): > 100 µM | TGI (TK-10 renal): > 100 µM | TGI (UACC-62 melanoma): > 100 µM

O=[N+]([O-])c1cc(-[n+]2cc([O-])on2)ccc1Cl
TGI (HCT-15 colon): 73.7 µM | TGI (NCI/ADR-RES ovarian): 58.8 µM | TGI (CAKI-1 renal): 5.01 µM | TGI (OVCAR-3 ovarian): > 100 µM | TGI (DU-145 prostate): 30.5 µM | TGI (MCF7 breast): 43.3 µM | TGI (OVCAR-4 ovarian): 29.1 µM | TGI (SW-620 colon): 26.2 µM | TGI (MALME-3M melanoma): 32.9 µM | TGI (M14 melanoma): 41.8 µM | TGI (ACHN renal): 29.5 µM | TGI (SNB-19 CNS): 27.1 µM | TGI (UO-31 renal): 31 µM | TGI (MDA-MB-231 breast): 37.7 µM | TGI (SK-MEL-5 melanoma): 21.9 µM | TGI (U251 CNS): 30.7 µM | TGI (HOP-92 NSCLC): 42.1 µM | TGI (SR leukemia): > 100 µM | TGI (TK-10 renal): 67.2 µM | TGI (UACC-62 melanoma): 89.8 µM

COC1=C2CC(C)CC(OC)C(OC(=O)CN)[C@H](C)/C=C(\C)C(OC(N)=O)C(OC)/C=C\C=C(/C)C(=O)NC(=CC1=O)C2=O (stereo not given in full)
TGI (HCT-15 colon): 12.6 µM | TGI (NCI/ADR-RES ovarian): 27.8 µM | TGI (CAKI-1 renal): 17 µM | TGI (OVCAR-3 ovarian): 2.98 µM | TGI (DU-145 prostate): 16.4 µM | TGI (MCF7 breast): 2.01 µM | TGI (OVCAR-4 ovarian): 8.38 µM | TGI (SW-620 colon): 1.25 µM | TGI (MALME-3M melanoma): 1.59 µM | TGI (M14 melanoma): 10.8 µM | TGI (ACHN renal): 13.4 µM | TGI (SNB-19 CNS): 20.7 µM | TGI (UO-31 renal): 11.6 µM | TGI (MDA-MB-231 breast): 1.6 µM | TGI (SK-MEL-5 melanoma): 4.51 µM | TGI (U251 CNS): 12.6 µM | TGI (HOP-92 NSCLC): 1.27 µM | TGI (SR leukemia): 1.98 µM | TGI (TK-10 renal): 15.6 µM | TGI (UACC-62 melanoma): 1.78 µM
